Source: US20230142547A1, “COMPOUNDS FOR TREATING OR PREVENTING A CORONAVIRIDAE INFECTION & METHODS AND USES FOR ASSESSING THE OCCURRENCE OF A CORONAVIRIDAE INFECTION” (ABIVAX, priority 2020, published 2023)
Like-named read-outs stand apart in the source and are kept apart here.

Legend:
SARS-CoV-2 = type: cell-based; details: 48 hours post-infection, FIG. 2
SARS-CoV2 [1] = assay: Inhibition of SARS-CoV2 replication in MucilAir reconstituted human airway epithelium, viral genome by RT-qPCR; type: cell-based; details: for effect on SARS-CoV2 replication (in words): daily treatment, increasing concentrations
[2] = system: human reconstituted airway epithelial model of bronchial origin; type: cell-based; details: infected HAE, 48h post-infection
[3] = Tissue distribution of radioactivity in rat after single oral [14C]-ABX464 (whole-body autoradiography, liquid scintillation counting); type: in vivo; details: for concentration of radioactivity, Aortic wall / concentration of radioactivity, Lung / concentration of radioactivity, Myocardium / concentration of radioactivity, Nasal mucosa / concentration of radioactivity, Oesophageal wall / concentration of radioactivity, Tongue / concentration of radioactivity, Blood / concentration of radioactivity, Plasma: male albino rats, single oral 20 mg/kg; for concentration of radioactivity, Blood / concentration of radioactivity, Plasma: liquid scintillation counting
Procedure: (§1) This study was conducted in order to determine the tissue distribution and rates and routes of excretion of radioactivity in the rat following a single oral administration of [^14C]-ABX464. Analysis was performed using liquid scintillation counting (plasma and excreta) and quantitative whole-body autoradiography.
(§2) All animals received a single oral administration of [^14C]-ABX464 by oral gavage, at a nominal dose level of 20 mg/kg body weight and a dose volume of approximately 5 mL/kg. The target radioactive dose administered was ca 8 MBq/kg body weight.
Radioactivity in Blood and Plasma Whilst under terminal anaesthesia, but before freezing, up to 2 mL of blood was obtained from all animals by cardiac puncture and transferred to tubes pre-coated with K2-EDTA. The residual sample was centrifuged in order to obtain plasma. The radioactivity concentration was measured in blood and plasma by liquid scintillation counting.
For each animal, the legs, tail and whiskers were trimmed off and the frozen carcass set in a block of aqueous 2% (w/v) carboxymethylcellulose. The block was mounted onto the stage of a Leica CM3600 cryomicrotome maintained at ca −20° C. (Leica Microsystems (UK) Ltd) and sagittal sections (nominal thickness 30 μm) were obtained through the carcass to include the following tissues: exorbital lachrymal gland, intra-orbital lachrymal gland, Harderian gland, adrenal gland, thyroid, brain and spinal cord. The sections, mounted on Filmolux 610 Tape (Neschen UK), were freeze-dried in a GVD03 bench-top freeze-drier (Girovac Ltd) and placed in contact with FUJI imaging plates (type BAS-MS, Raytek Scientific Ltd). [^14C]-Blood standards of appropriate activity (also sectioned at a nominal thickness of 30 μm) were placed in contact with all imaging plates.
After exposure in a copper-lined, lead exposure box for 7 days, the imaging plates were processed using a FUJI FLA-5000 radiography system (Raytek Scientific Ltd). Electronic images were analysed using a PC-based image analysis package (Seescan 2 software, LabLogic Ltd). The carbon-14 standards included with each autoradiogram were used to construct calibration lines over a range of radioactivity concentrations.
Wherever possible, the maximum area within a single autoradiogram was defined for each tissue for measurement.
(§3) A suitable scintillation counter was used. Radioassays were performed at least in duplicate. Efficiency correlation curves were prepared and routinely checked by the use of [14-C]toluene and Ultima Gold™ quenched standards (PerkinElmer LAS (UK) Ltd).
Concentration of radioactivity in sample=C (dpm/g)
Specific radioactivity of test substance=S (MBq/mg)
Concentration of radioactivity in sample=(C/60000)/S (μg equiv/g)

[4] = Rates and routes of excretion of radioactivity in rat after single oral [14C]-ABX464; type: in vivo
Procedure: as §1, §2, §3

SARS-CoV2 [5] = assay: ABX464 in combination with Remdesivir: SARS-CoV2 viral RNA in HAE by RT-qPCR; type: cell-based; details: FIG. 3B
[6] = Severe acute respiratory syndrome coronavirus 2, RTqPCR, mean of duplicates, read-out: % inhibition of viral infection, MEAN
[7] = Severe acute respiratory syndrome coronavirus 2, RTqPCR, replicate N1, read-out: % inhibition of viral infection, N1
[8] = Severe acute respiratory syndrome coronavirus 2, RTqPCR, replicate N2, read-out: % inhibition of viral infection, N2

With `N#Cc1ccc(Nc2ccc3ccccc3n2)nc1` [ABX300, reference compound] the “TCID50 (in words)” value (SARS-CoV-2) was “very modest effect on the TCID50”, the “% inhibition of viral replication” value (SARS-CoV2 [1]; all tested concentrations (10 μM, 1 μM and 0.1 μM)) was 0% and the “effect on SARS-CoV2 replication (in words)” value (from here on “effect”) (SARS-CoV2 [1]) was “fails to show a marked effect on viral replication”. For the same molecule, the “epithelium integrity measured by TEER (in words)” value [2] was “reduction in epithelium integrity”.
In the case of `FC(F)(F)Oc1ccc(Nc2ccc3cccc(Cl)c3n2)cc1` [ABX464, 8-Chloro-N-(4-(trifluoromethoxy)phenyl)quinolin-2-amine], the “concentration of radioactivity, Aortic wall” value (shortened to “concentration … Aortic wall”) ([3]; 1 hour) is reported as 0.337 μg equivalents per gram, the “concentration of radioactivity, Lung” value ([3]; 1 hour) is reported as 1.19 μg equivalents per gram and the “concentration of radioactivity, Myocardium” value (“concentration … Myocardium” below) ([3]; 1 hour) is reported as 1.28 μg equivalents per gram. The “concentration of radioactivity, Nasal mucosa” value (“concentration … Nasal mucosa” for short) ([3]; 1 hour) was 0.252 μg equivalents per gram, the “concentration of radioactivity, Oesophageal wall” value (“concentration … Oesophageal wall” below) ([3]; 1 hour) was 1.72 μg equivalents per gram and the “concentration of radioactivity, Tongue” value ([3]; 1 hour) was 0.495 μg equivalents per gram. The “concentration of radioactivity, Blood” value ([3]; 1 hour) was 0.398 μg equivalents per gram, the “concentration of radioactivity, Plasma” value ([3]; 1 hour) was 0.461 μg equivalents per gram and the “concentration … Aortic wall” value ([3]; 4 hours) was 1.59 μg equivalents per gram. For the same molecule, the “concentration of radioactivity, Lung” value ([3]; 4 hours) was 1.89 μg equivalents per gram, the “concentration … Myocardium” value ([3]; 4 hours) was 1.45 μg equivalents per gram and the “concentration … Nasal mucosa” value ([3]; 4 hours) was 0.708 μg equivalents per gram. For the same molecule, the “concentration … Oesophageal wall” value ([3]; 4 hours) was 2.72 μg equivalents per gram, the “concentration of radioactivity, Tongue” value ([3]; 4 hours) was 1.92 μg equivalents per gram and the “concentration of radioactivity, Blood” value ([3]; 4 hours) was 0.978 μg equivalents per gram. For the same molecule, the “concentration of radioactivity, Plasma” value ([3]; 4 hours) was 1.25 μg equivalents per gram, the “concentration … Aortic wall” value ([3]; 8 hours) was 1.74 μg equivalents per gram and the “concentration of radioactivity, Lung” value ([3]; 8 hours) was 1.45 μg equivalents per gram. The “concentration … Myocardium” value ([3]; 8 hours) was 0.677 μg equivalents per gram, the “concentration … Nasal mucosa” value ([3]; 8 hours) was 0.585 μg equivalents per gram and the “concentration … Oesophageal wall” value ([3]; 8 hours) was 0.795 μg equivalents per gram. The “concentration of radioactivity, Tongue” value ([3]; 8 hours) was 0.689 μg equivalents per gram, the “concentration of radioactivity, Blood” value ([3]; 8 hours) was 0.807 μg equivalents per gram and the “concentration of radioactivity, Plasma” value ([3]; 8 hours) was 1.18 μg equivalents per gram. The “concentration … Aortic wall” value ([3]; 24 hours) was 0.129 μg equivalents per gram, the “concentration of radioactivity, Lung” value ([3]; 24 hours) was 0.457 μg equivalents per gram and the “concentration … Myocardium” value ([3]; 24 hours) was 0.143 μg equivalents per gram. The “concentration … Nasal mucosa” value ([3]; 24 hours) was 0.084 μg equivalents per gram, the “concentration … Oesophageal wall” value ([3]; 24 hours) was 0.265 μg equivalents per gram and the “concentration of radioactivity, Tongue” value ([3]; 24 hours) was 0.122 μg equivalents per gram. The “concentration of radioactivity, Blood” value ([3]; 24 hours) was 0.229 μg equivalents per gram, the “concentration of radioactivity, Plasma” value ([3]; 24 hours) was 0.203 μg equivalents per gram and the “increase of affinity of related radioactivity to bind to the cellular partition of blood” value ([3]; over the study duration, rat, oral 20 mg/kg) was 10 fold. For the same molecule, the “binding of related material to melanin” value ([3]; rat, oral 20 mg/kg) was “no evidence for the binding”, the “radioactivity in the central nervous system / blood-brain barrier” value ([3]; rat, oral 20 mg/kg) was “drug related material crossed the blood-brain barrier, but was subsequently eliminated” and the “systemic and tissue bioavailability by the oral route (in words)” value ([3]; rat, oral 20 mg/kg) was “excellent systemic and tissue bioavailability”. The “TCID50 (in words)” value (SARS-CoV-2) was “dose-dependent decrease of the TCID50”, the “radioactivity remaining in carcasses” value ([4]; final sampling time of 168 hours, excretion balance phase) was “less than 0.5 % of the administered dose” and the “elimination of radioactivity via faeces” value ([4]; rat, oral 20 mg/kg) was 88%. The “radioactivity excreted via the renal system” value ([4]; rat, oral 20 mg/kg) was “less than 5%”, the “total mean recovery of radioactivity” value ([4]; rat, oral 20 mg/kg) was 93%±1.8 and the “orally administered dose absorbed” value ([4]; rat, oral 20 mg/kg, inferred from excretion) was “at least 5%”. It also gave an inhibition at 0.1 µM (SARS-CoV2 [1]; [6]) of 32.5%, an inhibition at 0.1 µM (SARS-CoV2 [1]; [7]) of 26.4% and an inhibition at 0.1 µM (SARS-CoV2 [1]; [8]) of 38.5%. For the same molecule, the inhibition at 1 µM (SARS-CoV2 [1]; [6]) was 93.2%, the inhibition at 1 µM (SARS-CoV2 [1]; [7]) was 88.8% and the inhibition at 1 µM (SARS-CoV2 [1]; [8]) was 97.7%. For the same molecule, the inhibition at 5 µM (SARS-CoV2 [1]; Severe acute respiratory syndrome coronavirus 2, 5 μM, RTqPCR, mean of duplicates, read-out: % inhibition of viral infection, MEAN) was 95.5%, the inhibition at 5 µM (SARS-CoV2 [1]; Severe acute respiratory syndrome coronavirus 2, 5 μM, RTqPCR, replicate N1, read-out: % inhibition of viral infection, N1) was 99.4% and the inhibition at 5 µM (SARS-CoV2 [1]; Severe acute respiratory syndrome coronavirus 2, 5 μM, RTqPCR, replicate N2, read-out: % inhibition of viral infection, N2) was 91.7%. For the same molecule, the “effect” value (SARS-CoV2 [1]) was “dose-dependent inhibition of SARS-CoV2 replication”, the “epithelium integrity measured by TEER (in words)” value [2] was “protective effect on the integrity of bronchial epithelium” and the “reduction of viral RNA” value (SARS-CoV2 [5]; 1 μM of ABX464 alone, HAE, RT-qPCR) was 1.5 log.
With `O=C(O)[C@H]1O[C@@H](N(c2ccc(OC(F)(F)F)cc2)c2ccc3cccc(Cl)c3n2)[C@H](O)[C@@H](O)[C@@H]1O` [ABX464-N-Gluc] the “TCID50 (in words)” value (SARS-CoV-2) was “a decrease is also observed”, the inhibition at 0.1 µM (SARS-CoV2 [1]; [6]) was 0% and the inhibition at 0.1 µM (SARS-CoV2 [1]; [7]) was 0%. It also gave an inhibition at 0.1 µM (SARS-CoV2 [1]; [8]) of 0%, an inhibition at 1 µM (SARS-CoV2 [1]; [6]) of 29% and an inhibition at 1 µM (SARS-CoV2 [1]; [7]) of 20%. It also gave an inhibition at 1 µM (SARS-CoV2 [1]; [8]) of 38%, an inhibition at 10 µM (SARS-CoV2 [1]; [6]) of 88% and an inhibition at 10 µM (SARS-CoV2 [1]; [7]) of 99.9%. For the same molecule, the inhibition at 10 µM (SARS-CoV2 [1]; [8]) was 76% and the “effect” value (SARS-CoV2 [1]) was “dose-dependent effect”.
`CCC(CC)COC(=O)[C@H](C)N[P@](=O)(OC[C@H]1O[C@@](C#N)(c2ccc3c(N)ncnn23)[C@H](O)[C@@H]1O)Oc1ccccc1` [Remdesivir, reference compound] gave an inhibition at 5 µM (SARS-CoV2 [1]; Severe acute respiratory syndrome coronavirus 2, read-out: % inhibition of viral infection, MEAN) of 100%, an inhibition at 5 µM (SARS-CoV2 [1]; Severe acute respiratory syndrome coronavirus 2, read-out: % inhibition of viral infection, N1) of 99.9% and an inhibition at 5 µM (SARS-CoV2 [1]; Severe acute respiratory syndrome coronavirus 2, read-out: % inhibition of viral infection, N2) of 100%. The “reduction of viral RNA” value (SARS-CoV2 [5]; REM alone (5 μM), values from another experiment) was 4 log.
